Counter-ions that a name gives are not always drawn.
Key:
[1] = Moisture sorption testing (gas flow microbalance, VTI SGA-100); assay type: physicochemical; settings: for hygroscopicity: 25° C.
Protocol: The sample was equilibrated at 25° C. and 30% relative humidity and the relative humidity increased stepwise (adsorption) to 40, 50, 60, 70, 80, 90%—each relative humidity step was held until the sample equilibrated at that condition. Equilibrium was defined as a weight change of less than 0.015% in 5 minutes. The relative humidity was then decreased step wise (desorption) to 90, 80, 70, 60, 50, 40, 30, 20, 10, and 5%—each step held until equilibrium was reached. The equilibrium condition was the same as in the sorption phase. The % w/w increase or decrease in moisture content of the sample is reported for each equilibrated RH condition.
The sample was dried at 60C under a dry nitrogen stream until the rate of weight loss was less than 0.015% in 5 minutes. After drying the sample was equilibrated at 25C and the relative humidity increased stepwise (adsorption) to 5, 20, 45, 75, and 95%—each relative humidity step was held until the sample equilibrated at that condition or a 180 minute time limit was reached. Equilibrium was defined as a weight change of less than 0.015% in 5 minutes. The relative humidity was then decreased step wise (desorption) to 75, 45, and 20%—each step held until equilibrium was reached. The equilibrium condition was the same as in the sorption phase. The % w/w increase or decrease in moisture content of the sample is reported for each equilibrated RH condition.

[2] = Stability testing in 40 C/75% RH oven; assay type: physicochemical; settings: after two (2) weeks in an 40 C/75% RH oven
DPP IV = DPP IV (Homo sapiens, UniProt P27487); settings: as noted in WO 03/02531; cited from earlier work
DPP IV, sequence (P27487 whole entry, species assumed): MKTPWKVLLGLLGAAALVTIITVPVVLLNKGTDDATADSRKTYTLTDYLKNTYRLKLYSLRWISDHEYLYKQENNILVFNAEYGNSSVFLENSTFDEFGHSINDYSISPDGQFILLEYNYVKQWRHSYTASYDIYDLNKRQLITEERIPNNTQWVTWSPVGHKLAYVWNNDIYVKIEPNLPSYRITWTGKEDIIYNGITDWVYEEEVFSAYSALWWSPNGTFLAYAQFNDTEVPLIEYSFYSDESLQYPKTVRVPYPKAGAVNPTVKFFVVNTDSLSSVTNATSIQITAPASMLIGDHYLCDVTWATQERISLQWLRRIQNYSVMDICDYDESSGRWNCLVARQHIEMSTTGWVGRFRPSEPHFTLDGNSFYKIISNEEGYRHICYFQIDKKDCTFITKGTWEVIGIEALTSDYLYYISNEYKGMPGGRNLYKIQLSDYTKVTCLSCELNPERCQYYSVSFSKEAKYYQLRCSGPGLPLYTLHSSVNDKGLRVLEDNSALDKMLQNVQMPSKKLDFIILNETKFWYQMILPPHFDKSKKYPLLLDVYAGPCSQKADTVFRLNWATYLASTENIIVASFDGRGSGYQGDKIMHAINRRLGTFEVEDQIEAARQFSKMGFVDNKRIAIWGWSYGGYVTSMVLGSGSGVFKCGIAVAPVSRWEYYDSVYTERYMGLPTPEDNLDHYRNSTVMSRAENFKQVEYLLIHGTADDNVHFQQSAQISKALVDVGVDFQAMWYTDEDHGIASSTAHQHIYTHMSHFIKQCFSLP

SMILES	hygroscopicity [1]	water adsorbed ([1]; relative humidity between 0% and 95% at 25C)	water adsorbed ([1]; relative humidity between 5% to 90% at 25° C.)	desorption of adsorbed water ([1]; when the relative humidity is decreased)	stability (purity data) [2]	hygroscopicity ([1]; hydrochloride)	water adsorbed ([1]; 95% relative humidity at 25° C.)	inhibition activity of DPP IV (DPP IV)
N#C[C@@H]1C[C@H](F)CN1C(=O)[C@@H](N)C(c1ccc(F)cc1)c1ccc(F)cc1 [anhydrate form 1, (2S,4S)-4-fluoro-1-[4-fluoro-β-(4-fluorophenyl)-L-phenylalanyl]-2-pyrrolidinecarbonitrile p-toluenesulfonic acid salt]	not hygroscopic	less than 1 % w/w	very little water	readily desorbs	beneficial properties with regard to stability	–	–	–
N#C[C@@H]1C[C@H](F)CN1C(=O)[C@@H](N)C(c1ccc(F)cc1)c1ccc(F)cc1 [HCl salt, (2S,4S)-1-[(2S)-2-Amino-3,3-bis(4-fluorophenyl)propanoyl]-4-fluoropyrrolidine-2-carbonitrile hydrochloride, reference compound]	–	–	–	–	–	hygroscopic	> 10%	demonstrates inhibition activity of DPP IV
